Experimental data published in patent publication US11975005B2, “Treatment of respiratory diseases” (TIANLI BIOTECH PTY LTD, priority 2015, dated 2024).

Columns and labels:
[1] = test system: glucocorticoid response element (GRE) activity; experiment: GRE activity / GRE reporter in BEAS-2B cells; assay type: cell-based, human; conditions: for TGFβ1-induced suppression of the GRE activity stimulated by Dex (30 nM): PF670462 1 or 10 μM 30 min before TGFβ1 for 24 hours
Experimental: Data are presented as the means and SEM of 3 independent experiments. *P<0.05, cf corresponding Dex 30 nM response.
(§1) The methods used in Examples 1 to 5 (and 10, 19, 20) are similar to those reported in Salem et al 2012 (Br J Pharmacol. 166:2036-2048) and again in Keenan et al 2014 (Respiratory Research, e15:55) in which methods for cell culture, GRE assays and gene expression measurements are fully described. Additional methods for growth of respiratory syncytial virus (RSV) and rhinovirus (RV) are described in Collins et al 2007 (Respir Physiol Neurobiol. 2007 Jun. 15; 156(3):345-52.) and by Xatzipsalti and papdopoulos, 2007 (Contrib Microbiol. 2007; 14:33-41).

[2] = test system: HDM allergen; experiment: House dust mite (HDM) allergen challenge in mice; assay type: in vivo
Experimental: The conduct of the house dust mite allergy model with RSV complication was conducted as described herein and using the approaches described in Fuchs and Braun 2008 (Curr Drug Targets. 2008 June; 9(6):495-502).

[3] = test system: GRE-dependent gene expression; experiment: Glucocorticoid-induced gene expression in BEAS-2B cells; assay type: cell-based, human
Source text: as §1
Data are presented as the means and SEM of 4 independent experiments. *P<0.05, cf corresponding Dex 30 nM response. […] Thus, TNFα contribution to glucocorticoid resistance, may be independent of TGFβ. The resistance is exemplified by the epithelial sodium channel alpha subunit SCNN1a which assembles into a Na channel that is thought to contribute to water reabsorption from the airspaces that are flooded during acute lung injury.
TGFβ suppression ranged in magnitude amongst the genes selected for analysis. […] TGFβ and Dex synergise in increasing the expression of PAI-1 (FIG. 24B).

[4] = BEAS-2B, Dex 100 nM, PF670462 1-10 μM prior incubation
[5] = FIG. 6A, BEAS-2B, SB431542 1 μM, PF670462 10 μM

Compound: Nc1nccc(-c2c(-c3ccc(F)cc3)ncn2C2CCCCC2)n1 [PF670462]
- maximum effect of the glucocorticoid (budesonide, dexamethasone 1-100 nM) on GRE reporter construct ([1]; BEAS 2B cells, PF670462 0.3-10 μM): concentration dependently increased
- TGFβ1-induced suppression of the GRE activity stimulated by Dex (30 nM) ([1]; BEAS-2B cells): concentration-dependently attenuated
- TGFβ1-induced suppression of the GRE activity stimulated by Dex (30 nM) ([1]; BEAS-2B cells, listed as PF674062): prevents
- impairment of Dexamethasone 30 nM GRE responses by Rhinovirus (RV16) infection ([1]; BEAS-2B cells, RV16 0.1 or 1.0 MOI, SB431542 1 μM): prevented
- Suppression of glucocorticoid-induced GRE responses to Dex (30 nM) induced by the combination TNFα, IL-13 and IL-4 ([1]; BEAS-2B cells, cytokines each at 1 or 10 ng/ml, PF670462 1 or 10 μM): attenuated
- increase in the BAL protein level ([2]; HDM allergen 25 μg/35 μL daily intranasal, aerosol PF670462 3 mg/ml, Budesonide 0.5 mg/ml): regulated
- Lymphocyte numbers in BAL ([2]; HDM allergen challenged mice, aerosol treatments): reduced
- suppression of Dex (30 nM) gene expression response (SCNN1a) induced by IL-13/IL-4 ([3]; BEAS-2B cells, IL-13/IL-4 at 10 ng/ml, PF670462 1 or 10 μM, SB431542 1 μM): partially attenuated
- RSV-induced impairment of Dexamethasone ZBTB16 gene expression responses ([3]; BEAS-2B cells, RSV 0.1 or 1.0 MOI, pretreatment): prevented
- impairment of Dexamethasone 30 nM GILZ gene expression responses by RV16 infection ([3]; BEAS-2B cells, RV16 1.0 MOI, pretreatment): greatly diminished
- TGFβ1 induced suppression of gene expression responses to Dex (30 nM), exemplified by SCNN1a expression ([3]; BEAS-2B cells, TGFβ1 24 hours, PF670462 1 or 10 μM): concentration dependently attenuated
- suppression of Dex (30 nM) gene expression response (SCNN1a) induced by the combination TNFα, IL-13 and IL-4 ([3]; BEAS-2B cells, each at 0.1 ng/ml, PF670462 1 or 10 μM, SB431542 1 μM): partially attenuated
- TGFβ suppression of glucocorticoid-induced CDKN1C (p57kip2) expression ([3]; BEAS-2B, Dex 100 nM, PF670462 1-10 μM): unaffected
- TGFβ suppression of Dex-induced expression of FKBP5 [3, 4]: prevented
- TGFβ suppression of Dex-induced expression of GILZ [3, 4]: prevented
- TGFβ suppression of Dex-induced expression of SCNNIA (ENaCα) [3, 4]: prevented
- TGFβ suppression of Dex-induced expression of ZBTB16 (PLZF) [3, 4]: prevented
- increase in expression of PAI-1 by TGFβ and Dex ([3]; BEAS-2B, FIG. 24B, PF670462 1-10 μM): concentration-dependently reduced
- levels of GILZ in RV infected cells [3, 5]: increased
- levels of GILZ in uninfected cells [3, 5]: but not in uninfected cells
- RV infection-induced decrease of Dex-induced GILZ expression ([3]; FIG. 6B, BEAS-2B, SB431542 3 μM, PF670462 3 μM): prevented
